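Dose response: 5 concentrations. Exposure: 48 h. Format: 96-well plates. Endpoint: linear interpolation; highest concentration if not reached. GI50 is the concentration that inhibits growth by half. TGI marks complete inhibition of growth.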
Tests used:
Experiment in all cases: NCI tumour cell line growth inhibition, 48 h
[1] = tested on: OVCAR-3 ovarian
[2] = tested on: MOLT-4 leukemia
[3] = tested on: U251 CNS
[4] = tested on: DU-145 prostate
[5] = tested on: A498 renal
[6] = tested on: LOX IMVI melanoma
[7] = tested on: SK-MEL-5 melanoma
[8] = tested on: SF-539 CNS
[9] = tested on: TK-10 renal
[10] = tested on: HCT-15 colon
[11] = tested on: SNB-19 CNS
[12] = tested on: COLO 205 colon
[13] = tested on: NCI-H460 lung
[14] = tested on: NCI/ADR-RES ovarian
[15] = tested on: IGROV1 ovarian
[16] = tested on: ACHN renal
[17] = tested on: OVCAR-5 ovarian
[18] = tested on: HS 578T breast
[19] = tested on: SF-295 CNS
[20] = tested on: KM12 colon
[21] = tested on: HT29 colon
[22] = tested on: MCF7 breast
[23] = tested on: OVCAR-8 ovarian
[24] = tested on: HOP-62 NSCLC
[25] = tested on: UACC-62 melanoma
[26] = tested on: T-47D breast
[27] = tested on: NCI-H23 lung
[28] = tested on: HOP-92 NSCLC
[29] = tested on: UO-31 renal
[30] = tested on: SR leukemia
[31] = tested on: UACC-257 melanoma
[32] = tested on: MALME-3M melanoma
[33] = tested on: K-562 leukemia
[34] = tested on: BT-549 breast
[35] = tested on: SK-MEL-2 melanoma
[36] = tested on: SN12C renal
[37] = tested on: CAKI-1 renal
[38] = tested on: NCI-H522 lung
[39] = tested on: 786-0 renal
[40] = tested on: CCRF-CEM leukemia
[41] = tested on: PC-3 prostate
[42] = tested on: M14 melanoma
[43] = tested on: SF-268 CNS
[44] = tested on: RXF 393 renal
[45] = tested on: SW-620 colon
[46] = tested on: SNB-75 CNS
[47] = tested on: SK-OV-3 ovarian
[48] = tested on: SK-MEL-28 melanoma
[49] = tested on: HCC-2998 colon
[50] = tested on: MDA-MB-435
[51] = tested on: MDA-MB-231 breast
[52] = tested on: A549 NSCLC
[53] = tested on: HL-60(TB) leukemia
[54] = tested on: HCT-116 colon
[55] = tested on: EKVX NSCLC
[56] = tested on: NCI-H226 lung
[57] = tested on: RPMI-8226 leukemia
[58] = tested on: OVCAR-4 ovarian

## Clc1ccc2ncc(-c3cccc(NC4CNC4)n3)n2c1
[1]
  GI50: 18.9 µM
  TGI: > 100 µM
[2]
  GI50: 5.03 µM
  TGI: > 100 µM
[3]
  GI50: 6.85 µM
  TGI: 48.7 µM
[4]
  GI50: 4.58 µM
  TGI: > 100 µM
[5]
  GI50: 5.7 µM
  TGI: 19.7 µM
[6]
  GI50: 2.47 µM
  TGI: 13.8 µM
[7]
  GI50: 16.1 µM
  TGI: 76.1 µM
[8]
  GI50: 2.92 µM
  TGI: 17.3 µM
[9]
  GI50: 8.03 µM
  TGI: 93.3 µM
[10]
  GI50: 5.39 µM
  TGI: > 100 µM
[11]
  GI50: 24.1 µM
  TGI: > 100 µM
[12]
  GI50: 2.11 µM
  TGI: 7.31 µM
[13]
  GI50: 2.96 µM
  TGI: 13.5 µM
[14]
  GI50: 33.5 µM
  TGI: > 100 µM
[15]
  GI50: 4.57 µM
  TGI: 44.6 µM
[16]
  GI50: 1.91 µM
  TGI: > 100 µM
[17]
  GI50: 6.45 µM
  TGI: > 100 µM
[18]
  GI50: 3.91 µM
  TGI: 20.6 µM
[19]
  GI50: 3.34 µM
  TGI: 20.2 µM
[20]
  GI50: 0.686 µM
  TGI: > 100 µM
[21]
  GI50: 3.21 µM
  TGI: > 100 µM
[22]
  GI50: 4.64 µM
  TGI: 52.3 µM
[23]
  GI50: 3.92 µM
  TGI: 84.3 µM
[24]
  GI50: 5.98 µM
  TGI: 65.4 µM
[25]
  GI50: 10.2 µM
  TGI: 27.3 µM
[26]
  GI50: 20.2 µM
  TGI: 73.8 µM
[27]
  GI50: 7.66 µM
  TGI: 36.3 µM
[28]
  GI50: 20.5 µM
  TGI: 67.7 µM
[29]
  GI50: 5.12 µM
  TGI: 88.5 µM
[30]
  GI50: 1.97 µM
  TGI: > 100 µM
[31]
  GI50: 11.5 µM
  TGI: 51.4 µM
[32]
  GI50: 8.59 µM
  TGI: 26.4 µM
[33]
  GI50: 8.9 µM
  TGI: > 100 µM
[34]
  GI50: 10.5 µM
  TGI: 31.8 µM
[35]
  GI50: 13.5 µM
  TGI: 37.9 µM
[36]
  GI50: 1.58 µM
  TGI: > 100 µM
[37]
  GI50: 4.51 µM
  TGI: 84.1 µM
[38]
  GI50: 6.13 µM
  TGI: 27.9 µM
[39]
  GI50: 7.96 µM
  TGI: > 100 µM
[40]
  GI50: 3.62 µM
  TGI: 72.7 µM
[41]
  GI50: 4.55 µM
  TGI: 80.9 µM
[42]
  GI50: 8.87 µM
  TGI: 25.5 µM
[43]
  GI50: 8.7 µM
  TGI: 33 µM
[44]
  GI50: 1.45 µM
  TGI: 11.6 µM
[45]
  GI50: 2.92 µM
  TGI: 15.8 µM
[46]
  GI50: 10.6 µM
  TGI: 27.8 µM
[47]
  GI50: 9.24 µM
  TGI: > 100 µM
[48]
  GI50: 13 µM
  TGI: > 100 µM
[49]
  GI50: 12.9 µM
  TGI: 68.2 µM
[50]
  GI50: 4.76 µM
  TGI: 21.5 µM
[51]
  GI50: 6.48 µM
  TGI: 75.1 µM
[52]
  GI50: 4.71 µM
  TGI: > 100 µM
[53]
  GI50: 4.54 µM
  TGI: 42.2 µM
[54]
  GI50: 3.7 µM
  TGI: > 100 µM

## ClCc1ccc(Cn2cnc3c(Cl)ncnc32)cc1
[1]
  GI50: 8.73 µM
  TGI: 18.5 µM
[2]
  GI50: 11.8 µM
  TGI: > 56.2 µM
[3]
  GI50: 6.4 µM
  TGI: 15.1 µM
[4]
  GI50: 7.3 µM
  TGI: 25.5 µM
[5]
  GI50: 29.4 µM
  TGI: 50.4 µM
[6]
  GI50: 5.8 µM
  TGI: 20.4 µM
[7]
  GI50: 11.7 µM
  TGI: 35.9 µM
[8]
  GI50: 10.9 µM
  TGI: 29.2 µM
[9]
  GI50: 11.3 µM
  TGI: 23.6 µM
[10]
  GI50: 10.6 µM
  TGI: > 36.7 µM
[11]
  GI50: 16.9 µM
  TGI: 43.3 µM
[12]
  GI50: 13.7 µM
  TGI: > 100 µM
[13]
  GI50: 1.34 µM
  TGI: 15.6 µM
[14]
  GI50: 10.8 µM
  TGI: 25.2 µM
[15]
  GI50: 13.6 µM
  TGI: 42 µM
[16]
  GI50: 4.04 µM
  TGI: 11.5 µM
[17]
  GI50: 18.2 µM
  TGI: 34.7 µM
[18]
  GI50: 13.6 µM
  TGI: 29.1 µM
[19]
  GI50: 5.71 µM
  TGI: 19.2 µM
[20]
  GI50: 10.3 µM
  TGI: 30.2 µM
[21]
  GI50: > 45 µM
  TGI: > 100 µM
[22]
  GI50: 4.65 µM
  TGI: 55.7 µM
[23]
  GI50: 16.5 µM
  TGI: 44.2 µM
[24]
  GI50: 11 µM
  TGI: 23.7 µM
[55]
  GI50: 9.68 µM
  TGI: 19.5 µM
[25]
  GI50: 9.76 µM
  TGI: 19.5 µM
[26]
  TGI: > 100 µM
[27]
  GI50: 6.99 µM
  TGI: 17.3 µM
[28]
  GI50: 8.48 µM
  TGI: 39.9 µM
[29]
  TGI: > 21.5 µM
[30]
  GI50: 0.0902 µM
[31]
  GI50: 24.2 µM
  TGI: 50 µM
[33]
  GI50: 15.4 µM
  TGI: > 63 µM
[34]
  GI50: 21.9 µM
  TGI: 45.8 µM
[56]
  GI50: 12.7 µM
  TGI: 28.6 µM
[35]
  GI50: 19.7 µM
  TGI: > 92.8 µM
[36]
  GI50: 8.46 µM
  TGI: 20.5 µM
[37]
  GI50: 2.26 µM
  TGI: 8.78 µM
[38]
  GI50: 11.5 µM
  TGI: 75.7 µM
[39]
  TGI: > 20 µM
[40]
  GI50: 4.64 µM
  TGI: > 48.8 µM
[41]
  GI50: 18 µM
  TGI: 56.3 µM
[42]
  GI50: 9.84 µM
  TGI: 19 µM
[57]
  GI50: 12.2 µM
  TGI: 33.5 µM
[43]
  GI50: 6.03 µM
  TGI: 16.5 µM
[44]
  GI50: 13 µM
  TGI: 30.4 µM
[45]
  GI50: 7.67 µM
  TGI: 19.4 µM
[46]
  GI50: > 42 µM
  TGI: > 67 µM
[47]
  GI50: 20 µM
  TGI: 47.6 µM
[48]
  GI50: > 28.1 µM
  TGI: > 55.7 µM
[50]
  GI50: 13 µM
  TGI: 23.3 µM
[51]
  GI50: 10.4 µM
  TGI: 20.8 µM
[58]
  TGI: > 25.7 µM
[52]
  GI50: 11.2 µM
  TGI: 38.3 µM
[53]
  GI50: 10.1 µM
  TGI: 23.1 µM
[54]
  GI50: 10.4 µM
  TGI: 17.4 µM

— PubChem BioAssay (NCI)
